Data as given in US9359373B1, “Lipophilic N-substituted norcantharimide derivatives and uses thereof” (priority 2014, dated 2016).
Read-outs that look alike come from different tables or passages of the source.

Tests used:
[1] = system: HT29; assay: MTT cell viability, HT29; assay type: cell-based, human; conditions: Mean ± SD, read-out: Growth Inhibition IC50 HT-29
Method: (§1) Cell lines used in the present disclosure include human liver carcinonoma cell line HepG2, human bladder carcinoma cell line BFTC905, human colon carcinoma cell lines HT29 and SW480, and human leukemia cell lines HL60 and Jurkat T, and mouse lymphocytic leukemia cell line L1210. Each cell lines were cultured and maintained in Dulbecco's modified Eagle media (DMEM) or RPMI 1640 medium supplemented with 10% heat inactivated fetal bovine serum (FBS), 1% penicillin/streptomycin, in 5% CO2195% air at 37° C.
(§2) The absorbance of the solution at 540 nm was measured by spectrophotometer. The IC50 values were defined as the drug concentration that inhibit 50% cell growth by setting the viability of untreated cells as 100%. Values were represented as the mean±SD from at least 3 independent experiments.
(§3) Effects of the compounds of formula (I) of this disclosure, specifically, NOC15 and NC 15, on HepG2 cells (liver carcinoma), BFTC905 (bladder carcinoma), HT29 (colon carcinoma), SW480 (colon carcinoma) and HL60 (leukemia) were assessed by cell viability analysis in accordance with procedures described above, in which compound 2, and other known anti-cancer agents including 5-FU, cisplatin and doxorubicin were respectively used as positive controls.

[2] = system: SW480; assay: MTT cell viability, SW480; assay type: cell-based, human; conditions: Mean ± SD, read-out: Growth Inhibition IC50 SW480
Method: as §1, §2, §3

[3] = system: HepG2 cells; assay: MTT cell viability, HepG2; assay type: cell-based, human
Method: as §1, §2, §3
In this example, effects of NOC15 or NC15 on HepG2 cells were assessed by cell viability analysis in accordance with procedures described above, in which compound 2 was used as a positive control.

[4] = system: HL60; assay: MTT cell viability, HL60; assay type: cell-based, human; conditions: for IC50: MTT, 48 hours, Mean ± SD, read-out: Growth Inhibition IC50 HL-60; for response of leukemia cell line HL60 to treatment: in words, from Table 1
Method: as §1, §2, §3

[5] = system: HepG2 cells; assay: Apoptotic analysis annexin-V/PI flow cytometry; assay type: cell-based, human; conditions: 10-60 μM, 48 hours, FIG. 3
Method: The percentage of apototic cells was determined according to the manufacturer's protocol by using an annexin-V/FITC kit/propidium iodine (PI) flow cytometer. To facilitate the detection of apoptosis, the treated cells were centrifuged for 5 min at a speed of 1,000×g at room temperature, and then resuspended and washed once with 5 mL PBS before being stained with annexin-V/PI (apoptosis detection kit, R&D Systems, Taipei, Taiwan).
(§4) HepG2 cells were treated with 10-60 μM of the test compounds for 48 hours, then cell cycle distribution and apoptosis analysis was analyzed by flow cytometry, with the subG1 phase being stained with propidium idoine (PI). Results are illustrated in FIGS. 2 and 3.

[6] = system: BFTC905; assay: MTT cell viability, BFTC905; assay type: cell-based, human; conditions: Mean ± SD, read-out: Growth Inhibition IC50 BFTC905
Method: as §1, §2, §3

[7] = system: human lymphoblast cells (NHL); assay: Cell viability (CCK-8), normal lymphoblast cells; assay type: cell-based; conditions: 24 hours (NC15: 24 and 48 hours), FIG. 4, FIG. 6
Method: (§5) The cell viability assays were performed in 96-well plates. The 100 μl of cell suspensions (NHL or Jurkat T cells, 5×10^3 cells/well, serum-free medium) were inoculated in the wells and the plates were pre-incubated in the incubator for 24 hours (pre-incubated for 22 hours and stimulated with PMA 5 ng/ml plus ionomycin 250 ng/ml for 2 hours in PMAI-treated groups). Then, various concentrations of norcantharidin (0, 2, 4, 15, 30 and 60 μM) or NOC15 (0, 0.25, 0.5, 1, 2 and 4 μM) were added into the culture media in the wells. After 24 hours of incubation, the cell viability of NHL and Jurkat T cells was measured by cell counting kit-8 (CCK-8, Sigma). The half maximal inhibitory concentrations (IC50) of norcantharidin and NOC15 on Jurkat T cells and NHL cells were calculated.
(§6) In this example, a model of phorbol 12-myristate 13-acetate plus ionomycin (PMAI) activated leukemia Jurkat T cells model was employed to investigate the effects of the NOC15 on human leukemia cells (Jurkat T cells) and human lymphoblast cells (NHL).

[8] = system: HepG2 cells; assay: Cell cycle distribution by flow cytometry (PI), HepG2; assay type: cell-based, human; conditions: 48 hours, FIG. 2
Method: (§7) Cultured cells with or without pre-treatment of the compounds of this invention (i.e., norcantharidin, NOC15, or NC15, 10-60 μM for 48 hours) were harvested from the cultured media and fixed by incuating with 75% iced cold ehtanol and kept at −20° C. until analysis. The fixed cells were then washed with PBS, and treated with […] (200 μg/mL, 500 μL) for about 1.5 hour at 37° C. Precipitated cells were collected by centrifugation and re-suspended in a buffer solution containing propidium iodine (PI) (40 μg/ml) and incubated in the dark for 20 min at 20-25° C. before being subject to flow cytometry analysis, where cell numbers at respective cell cycles were determined.
as §4

[9] = system: HepG2 cells; assay: Hoechst 33528 staining, nuclear morphological changes; assay type: cell-based, human; conditions: 40 μM, 48 hours, FIG. 1
Method: Staining with Hoechst 33528 was performed according to the method described previously (Huang et al., Cytotechnology 2009, 59, 201-208). Briefly, cells were treated with 40 μM norcantharidin, NOC15, or NC15 for 48 hours, then washed with PBS saline and stained with Hoechst 33528 (Sigma, St. Louis, Mo., USA) at a final concentration of 10 μg/mL. The slides were examined under a fluorescence microscope. Cells with a small nucleus, a high fluorescence intensity (due to chromatin condensation) or nuclear fragmentation were considered apoptotic.
To further investigate the role of apoptosis in the cytotoxicity of NOC15 and NC15, HepG2 cells were incubated with compound 2, NOC15 and NC15, respectively, for 48 hours; then were stained with Hoechst 33528 and examined by fluorescence microscope for any topical morphological changes.

[10] = system: human leukemia cells (Jurkat T cells); assay: Cell viability (CCK-8), PMAI activated leukemia Jurkat T cells model; assay type: cell-based
Method: as §5, §6

[11] = system: L1210 cells; assay: Syngeneic L1210 tumor in vivo therapy; set-up: species or system DBA/2 mice
Method: The DBA/2 mice (about 7 weeks old, 18-22 g) were obtained from BioLASCO Taiwan Co., Ltd. All mice were housed in specific pathogen-free condition with ad libitum access to water and laboratory chow. A solution of L1210 cells was injected into the subcutaneous tissue to establish a syngeneic tumor. Alternatively, the L1210 cells was injected peritoneally. All animal experiments were performed in accordance with the guidelines of the Animal Welfare Committee of Taipei Veterans General Hospital (Taiwan, R.O.C.).
(§8) To inoculate tumor, L1210 cells (1×10^6 cells per injection) were injected either subcutaneously or intraperitoneally to lab animals to generate tumors on day 1. After 7 days, NOC15 or NC15 (diluted in normal saline) was administered intra-peritoneally at a dose of 18 mg/kg every day for 7 days. The average body weight (BW) of the animals was measured daily.
After treatment, mice were sacrificed, and their tumors, livers and spleens were harvested and weighted, respectively; and white blood cells (WBC) counts were also measured.
(§9) Mice were inoculated with L1210 tumor cells in accordance with the procedures described in the section of “Materials and Methods.” For in vivo therapy, animals were given 18 mg/Kg NOC15 or NC15 by intra-peritoneal route, for a period of at least 7 days. Tumor size, animal body weight, respective weights of liver and spleen, as well as the white blood cell count of each animal were then measured respectively at the indicated time. Results are depicted in FIGS. 8 to 11, respectively.

[12] = system: Jurkat T cells; assay: Cell cycle distribution by flow cytometry, Jurkat T cells; assay type: cell-based, human; conditions: for percentage of cells in subG1 phase: FIG. 5, FIG. 7
Method: as §7
Cell cycle distribution was determined by flow cytometry as described in the “Materials and Methods” section. Results is depicted in FIG. 5.
In this example, Jurkat T cells were treated with or without NC15 (2.513 μM) for 24 or 48 hours before being subject to cell cycle analysis. Results are depicted in FIG. 7.

[13] = system: normal hepatic cells; assay: Ex vivo growth of normal hepatic cells; assay type: cell-based; conditions: at about 8.2 μM
[14] = Body weight of treated animals; assay type: in vivo, mice; conditions: 18 mg/Kg, compared with healthy normal control, FIG. 11
Method: as §8, §9

[15] = MTT, 48 hours, Mean ± SD, read-out: Growth Inhibition IC50 HepG2
[16] = Homo sapiens, BFTC-905, 48 hours
[17] = Homo sapiens, HepG2, 24 h, Mean ± SD, read-out: Growth Inhibition On Hepatic Cancer Cells IC50 24 hrs
[18] = Homo sapiens, HepG2, 48 h, MTT, 48 hours, Mean ± SD, read-out: Growth Inhibition IC50 HepG2
[19] = Homo sapiens, HepG2, 48 h, Mean ± SD, read-out: Growth Inhibition On Hepatic Cancer Cells IC50 48 hrs
[20] = Homo sapiens, HepG2, 72 h, Mean ± SD, read-out: Growth Inhibition On Hepatic Cancer Cells IC50 72 hrs

## N.N.[Cl][Pt][Cl] [Cisplatin, cisplatin]
[1]; 48 hours
  IC50: 24.1 ± 0.1 µM
[2]; 48 hours
  IC50: 40.7 ± 1.2 µM
[3]; [15]
  IC50: 36.1 ± 3.1 µM
[4]
  IC50: > 100 µM
  response of leukemia cell line HL60 to treatment: did not respond well

## O=C1OC(=O)C2C3CCC(O3)C12 (stereo not drawn) [Compound 2, 7-oxabicyclo[2.2.1]heptane-2,3-dicarboxylic anhydride, reference compound]
[5]
  percentage of apoptotic cells / cell death: cytoxic effect was only observed when high concentration of compound 2 was used
[1]; Homo sapiens, HT-29, 48 hours
  IC50: 19.5 ± 0.2 µM
[2]; Homo sapiens, SW480, 48 hours
  IC50: 49.1 ± 8.4 µM
[6]; [16]
  IC50: 18.9 ± 0.3 µM
[7]
  cytotoxicity to normal lymphatic/lymphoblast cells (NHL): did not possess significant cytotoxicity
[8]; 10 μM
  fraction of apoptotic cells (subG1): only a small fraction of apoptotic cells
[8]; 20 μM
  fraction of apoptotic cells (subG1): 1.6%
[8]; 60 μM
  fraction of apoptotic cells (subG1): 16.7%
[9]
  nuclear morphological changes (apoptosis features): Significant morphological features of apotosis
[3]; [17]
  IC50: 48 ± 0.7 µM
[3]; [18]
  IC50: 42 ± 1.8 µM
[3]; [19]
  IC50: 42 ± 1.8 µM
[3]; [20]
  IC50: 22.8 ± 0.6 µM
[10]; 24 hours (NC15: 24 and 48 hours), FIG. 4, FIG. 6
  cytotoxicity to leukemia Jurkat T cells: toxic
[10]; PMA plus ionomycin pre-treatment, FIG. 4
  percentage of viable cells if pre-treated with PMA: increased slightly
[4]; Homo sapiens, HL-60
  IC50: > 100 µM

## O=c1[nH]cc(F)c(=O)[nH]1 [Compound 5-FU, 5-FU]
[1]; 48 hours
  IC50: > 100 µM
[2]; 48 hours
  IC50: 32.7 ± 8.3 µM
[6]; 48 hours
  IC50: > 100 µM
[3]; [15]
  IC50: 40.2 ± 7.6 µM
[4]
  IC50: > 100 µM
  response of leukemia cell line HL60 to treatment: did not respond well

## CC(C)=CCCC(C)=CCCC(C)=CCON1C(=O)C2C3CCC(O3)C2C1=O (stereo not drawn) [Compound 9, N-farnesyloxy-7-oxabicyclo[2.2.1]heptane-2,3-dicarboximide]
[5]
  percentage of apoptotic cells / cell death: dose-dependent
[11]; IP-inoculated tumor, 18 mg/kg i.p., FIG. 9B
  weight of liver: improved significantly
[11]; IP-inoculated tumor, 18 mg/kg i.p., FIG. 9C
  weight of spleen: improved significantly
[11]; SC-inoculated tumors, 18 mg/kg i.p. daily, FIG. 8A
  increase in life span: about 40%
[11]; SC-inoculated, 18 mg/kg i.p., FIG. 9A
  weight of s.c. tumor: Significant reduction
[11]; day 14, SC- or IP-injected L1210, 18 mg/kg i.p., FIG. 10
  white blood cell (WBC) counts: significant reductions
[12]; treated 24 hours (NC15 2.513 μM)
  percentage of cells in subG1 phase: increased
[12]; treated 48 hours (NC15 2.513 μM)
  percentage of cells in subG1 phase: increased
[12]; treated 48 hours, FIG. 5C
  percentage of cells in G2/M phase: increased
[1]; Homo sapiens, HT-29, 48 hours
  IC50: 9.7 ± 1.7 µM
[13]
  effect on normal hepatic cells: un-affected
[2]; Homo sapiens, SW480, 48 hours
  IC50: 18.5 ± 2.3 µM
[6]; [16]
  IC50: 11.3 ± 1 µM
[14]
  total body weight along the course of treatment: gradually improved the total body weight
[8]; 10-60 μM
  accumulation of cells in G2/M phase: inducing the accumulation of cells in G2/M phase
[9]
  nuclear morphological changes (apoptosis features): Significant morphological features of apotosis
[3]; [17]
  IC50: 10.7 ± 0.2 µM
[3]; [18]
  IC50: 8.3 ± 1.3 µM
[3]; [19]
  IC50: 8.3 ± 1.3 µM
[3]; [20]
  IC50: 8.2 ± 0.6 µM
[3]; Homo sapiens, HepG2, hepatic cancerous cells, time not given, read-out: concentration inhibiting ex vivo growth of hepatic cancerous cells for about 50%
  IC50: ~8.2 µM
[4]; Homo sapiens, HL-60
  IC50: 39 ± 1.1 µM
[4]
  response of leukemia cell line HL60 to treatment: did respond

## COc1cccc2c1C(=O)c1c(O)c3c(c(O)c1C2=O)C[C@@](O)(C(=O)CO)C[C@@H]3O[C@H]1C[C@H](N)[C@H](O)[C@H](C)O1 [Doxorubicin, doxorubicin]
[1]; Homo sapiens, HT-29, 48 hours
  IC50: 1.7 ± 0.2 µM
[2]; Homo sapiens, SW480, 48 hours
  IC50: 0.5 ± 0.1 µM
[3]; [18]
  IC50: 0.3 µM
[4]; Homo sapiens, HL-60
  IC50: 14.3 ± 0.9 µM
